{
  "source": "patent US11052158B2",
  "about": "“Delivery of urea to cells of the macula and retina using liposome constructs” (priority 2016, dated 2021)",
  "key": {"[1]": {"test_system": "eyes of New Zealand white rabbits", "from_the_text": "Female New Zealand white rabbits were obtained from Western Oregon Rabbit Co. (Philomath, Oreg.) and were housed and cared for in compliance with the regulations of the USDA Animal Welfare Act and under the review and approval of the institution's Animal Care and Use Committee.\nPrior to placement on study, each animal underwent an ophthalmic examination (slit-lamp biomicroscopy and indirect ophthalmoscopy). […] The acceptance criteria for placement on study were scores of “0” for all variables.\nSix female New Zealand White rabbits (two per subgroup) were administered urea-encapsulated liposome constructs (58 mol % DOPC, 42 mol % cholesterol) intravitreally (IVT) as a single dose into both eyes (OU). Animals were anesthetized with an intramuscular (IM) injection of ketamine hydrochloride (30 mg/kg), xylazine (5 mg/kg), and acepromazine (3 mg/kg) followed by isoflurane by inhalation (1-2.5%) in oxygen (1 L/min). One to two drops of topical proparacaine hydrochloride anesthetic (0.5%) were applied to the animal's eyes prior to the surgical procedure. Animals were kept anesthetized with their heads stabilized for three hours post dose, with one eye facing up and the other eye facing down.\nAfter three hours, a clinical ophthalmic examination was performed, animals were euthanized. Vitreous humor (VH) was collected as 3 fractions. Pupils were dilated using one drop each of 10% phenylephrine and 1% tropicamide. Two 18G needles were inserted into the eye at the 3 o'clock and 9 o'clock position and advanced into the VH, one with the bevel pointed up towards the lens and the other with the bevel pointed down toward the retina. Three hundred μL of VH were drawn up through each needle, after which each needle was removed from the eye. The eye was then harvested and enucleated. Following enucleation, the remaining VH was collected as the third fraction. Samples from each eye in each animal remained separate and were not pooled. The weight of ocular tissues was recorded. Individual VH fractions were weighed separately. VH fractions were centrifuged at 16,100×g at room temperature for 20-30 minutes. The supernatant was separated. Pellets containing liposome constructs and supernatant were snap frozen separately on dry ice and stored at −60 to −80° C. Retina was also collected from these animals, snap frozen on dry ice, and stored at −60 to −80° C.\nTwo additional animals (one per subgroup) were administered a single or double dose of free urea solution IVT into the right eye (OD) and balanced salt solution (BSS) into the left eye (OS). Animals were anesthetized with an IM injection of ketamine hydrochloride (30 mg/kg) and xylazine (5 mg/kg). One to two drops of topical proparacaine hydrochloride anesthetic (0.5%) were applied to the animal's eyes prior to the surgical procedure.\nClinical ophthalmic examinations, fundus photography, and optical coherence tomography (OCT) were performed in these animals on Days 0-3, 4 (AM and PM), 8 (±1), 14, 21, and 28 post dose. For OCT, pupils were dilated with one drop each of 10% phenylephrine and 1% tropicamide approximately 10-15 minutes prior to imaging. Images were taken using the Spectralis® instrumentation (Heidelberg Engineering, Inc., Heidelberg, Germany)."}, "[2]": {"test_system": "eyes of New Zealand white rabbits", "conditions": "for PVD observations by OCT: OD", "method": "Five female New Zealand White rabbits were given a single administration of urea solution IVT into both eyes (OU) at doses of 2.5, 5, 10, 25 and 50 mg/eye.\nPrior to placement in the study, each animal underwent an ophthalmic examination (slit-lamp biomicroscopy and indirect ophthalmoscopy). Ocular findings were scored according to a modified McDonald-Shadduck Scoring System. The acceptance criteria for placement on study were scores of “0” for all variables.\nAll procedures were performed using sterile technique. Animals were anesthetized for IVT injections, OCT, and B-Scan imaging with an IM injection of ketamine hydrochloride (50 mg/kg for imaging, 15-30 mg/kg for IVT injections) and xylazine (5 mg/kg). For one animal, anesthesia was prolonged via inhaled isoflurane (1-1.5% in 1.5-2 L/min oxygen) during baseline imaging due to extended duration of imaging. For another animal, inhaled isoflurane (2% in 1.5 L/min oxygen) was used to anesthetize the animal for IVT injections, because the animal had undergone baseline imaging (which included ketamine/xylazine anesthesia) earlier in the same day. One to two drops of topical proparacaine hydrochloride anesthetic (0.5%) were applied to the animal's eyes prior to the surgical procedure.\nPrior to IVT injection, eyes were cleaned with Betadine and then rinsed with BSS. Using a ⅝ inch needle, injections were made 3 to 4 mm away from the limbus. Once the needle had been inserted, urea solution or BSS was injected. The needle was removed and the eye rinsed with BSS. Animals were recovered immediately after dosing and monitored during recovery. Triple antibiotic ophthalmic ointment was administered to the eyes during recovery.\nAnimals were euthanized on Day 35 (±4) and their eyes (whole globe) were collected and submitted for histopathological analysis.\nOphthalmic examinations (slit-lamp biomicroscopy and indirect ophthalmoscopy) were performed on Days −3 or 0 (baseline prior to test/control article administration), 1, 4, 7 or 8, 14, 21, and 35. Day 4 examinations were performed at the beginning of the workday. Day 21 examinations were performed only on Groups 1, 2, and 5. Ocular findings were scored according to a modified McDonald-Shadduck Scoring System. […] Observations included assessment of the development and time course of PVD.\nImages of the fundus were taken on Days −3 or 0 (baseline prior to drug or BSS administration), 1, 4, 7 or 8, 14, 21, and 35. Day 4 images were taken at the beginning of the workday. Day 21 images were taken only of Groups 1, 2, and 5. Animals were not anesthetized for imaging.\nOCT was performed on Days −3 or 0 (baseline prior to test/control article administration), 1, 4, 7 or 8, 14, 21, and 35. Day 4 images were taken at the beginning of the workday. Day 21 images were taken only of Groups 1, 2, and 5. Animals were anesthetized as described above. A total of 8 images per rabbit per day was acquired.\nB-Scan ultrasound images were taken on Days −3 or 0 (baseline prior to test/control article administration) and on Day 35."}},
  "note": "Like-named read-outs stand apart in the source and are kept apart here.",
  "data": [
    {"smiles": "NC(N)=O", "note": "[urea, Urea]", "values": [
      {"measurement": "vitreous clouding (fundus photography)", "setting": "[1]; 96 and 192 mg/eye IVT, OD", "result": "clouding of the OD vitreous from Day 0 through Day 3"},
      {"measurement": "toxicity from Day 3 onward (fundus imaging)", "setting": "[1]; 96 and 192 mg/eye IVT, OD, at the site of delivery, peaked Days 3-7", "result": "severe retinal folding and vascular hemorrhage"},
      {"measurement": "retinal detachment (OCT)", "setting": "[1]; 96 and 192 mg/eye IVT, peaked between Days 3 and 7, then subsided", "result": "retina had detached mostly at the ganglion cell layer"},
      {"measurement": "days on which OCT imaging showed PVD", "setting": "[1]; Subgroup 2a, 96 mg/eye IVT, OD", "result": "Day 3"},
      {"measurement": "days on which OCT imaging showed PVD", "setting": "[1]; Subgroup 2b, 192 mg/eye IVT, OD", "result": "Days 4 (AM and PM), 7, and 14"},
      {"measurement": "time to development of PVD", "setting": "[1]; free urea 96 mg/eye (single dose) or 192 mg/eye (double dose) IVT, OD", "result": "≤ 2", "unit": "days"},
      {"measurement": "ocular irritation and swelling after IVT injection", "setting": "[1]; immediately after IVT injection, resolved over the next few days in surviving animals", "result": "ocular irritation and swelling were observed"},
      {"measurement": "adverse effects on body weights and general health", "setting": "[1]; single IVT dosing, liposome constructs 56-96 mg total urea/eye, free urea 96 or 192 mg/eye", "result": "No adverse effects on body weights and no severe adverse effects on general health"},
      {"measurement": "PVD in clinical ophthalmic examinations", "setting": "[2]; 2.5-50 mg/eye IVT, up to Day 35", "result": "No evidence of PVD"},
      {"measurement": "PVD observations by OCT", "setting": "[2]; Group 1, 5 mg urea IVT", "result": "Partial PVD on Day 35"},
      {"measurement": "PVD observations by OCT", "setting": "[2]; Group 2, 10 mg urea IVT", "result": "Partial PVD on Day 7 and beyond"},
      {"measurement": "PVD in B-scan images, Day 35", "setting": "[2]; Group 4, 50 mg/eye", "result": "evidence of PVD in the right eye (OD)"},
      {"measurement": "PVD observations by OCT", "setting": "[2]; Group 5, 2.5 mg urea IVT", "result": "Possible partial PVD on Day 4, none observed"},
      {"measurement": "PVD in B-scan images, Day 35", "setting": "[2]; other animals (2.5, 5, 10, 25 mg/eye)", "result": "no PVD could be detected"}
    ]}
  ]
}
